Laboratory results reported in paper PMC11005685, “Identification of Potent siRNA Delivery Peptides Using Computer Modeling” (Advanced Science, 2024).

Columns and labels:
mouse lung cells = assay: scRNA-seq of lung after vector injection; assay type: in vivo
Experimental: (§1) Freshly tissues were washed in Hanks’ balanced salt solution, and cut into small pieces on ice, then digested with collagenase I and IV. After incubated for 30 min at 37°C with continuous shaking. The shredded tissues were filtered the 70 µm nylon mesh, and the obtained cells were centrifuged at 4°C. Red blood lysis buffer added in pelleted cells and shaked up and down 10 times, and then washed three times, finally resuspended in buffer (added 0.04% BSA in PBS). After removing dead cells in suspensions by flow cytometry, the process of single‐cell RNA‐seq following the standard instructions.
(§2) The generation of raw counts matrices was accomplished using CellRanger software, version 6.0.0, referencing the GRCm38 mouse genome. To attain a data set purified of doublets, the Scrublet software was employed. Subsequently, the filtered counts matrices underwent loading into the R software (version 4.0.3), facilitated by the Seurat package. Cells were meticulously curated to exclude those expressing either an excessive (>7000) or an insufficient (<200) number of genes, or presenting high mitochondrial counts (>20%). The raw data were then subjected to normalization using the LogNormalize method. The selection of the top 2000 highly variable genes was carried out with Seurat's FindVariableFeatures function, applying the vst method as the basis for further analysis. To harmonize the batch effects, the IntegrateData function in Seurat was employed. Dimensionality reduction was realized through Principal Component Analysis (PCA), with the leading 30 principal components (PCs) forming the basis for Uniform Manifold Approximation and Projection (UMAP) performance. Cluster identification ensued using Seurat's FindClusters function, setting the resolution at 0.5. Marker gene elucidation was achieved using the differential expression analysis through the Wilcox rank‐sum test, as implemented in the FindAllMarkers function (fold change≥2 and adjusted P≤0.05). Cell clusters underwent annotation against known cell type markers to ascertain their identity. Akin analyses focusing on subclusters of Kupffer cells and Neutrophils were conducted applying a similar methodological framework. Recognition of differentially expressed genes between two groups was facilitated by the Wilcox rank‐sum test via Seurat's FindMarkers function (fold change≥2 and adjusted P≤0.05). Data visualization was executed utilizing the ggplot2 package within the R software. Functional annotations and pathway enrichment analyses, considering the Gene Ontology (GO), were performed with the clusterProfiler package, deeming terms statistically significant at a P≤0.05.

mouse liver cells = assay: scRNA-seq of liver after vector injection; assay type: in vivo
Experimental: as §1
as §2, with “Akin analyses focusing on subclusters of Kupffer cells and Neutrophils were conducted applying a similar methodological framework. Recognition of differentially expressed genes between two groups was facilitated by the Wilcox rank‐sum test via Seurat's FindMarkers function (fold change≥2 and adjusted P≤0.05). Data visualization was executed utilizing the ggplot2 package within the R software. Functional annotations and pathway enrichment analyses, considering the Gene Ontology (GO), were performed with the clusterProfiler package, deeming terms statistically significant at a P≤0.05.” left out

CCCCCCCC/C=C\CCCCCCCC(=O)OCC(C[N+](C)(C)C)OC(=O)CCCCCCC/C=C\CCCCCCCC (stereo not shown) [DOTAP]
alveolar macrophages distributed in the Sirpa+ cluster (mouse lung cells; lung scRNA-seq subclustering): 73% | differentially expressed genes in lung neutrophils (mouse lung cells; lung, vs untreated, total number of DEGs): 18 | differentially expressed genes in alveolar macrophages (mouse lung cells; lung, vs untreated, total number of genes): 12 | change in cellular composition of lung (mouse lung cells; vs untreated group): sharp increase in the number of neutrophils and alveolar macrophages and a decrease in the number of immune cells and endothelial cells | differentially expressed genes in Kupffer cells (mouse liver cells; liver, vs untreated (NS), total number of genes): 7 | differentially expressed genes in liver neutrophils (mouse liver cells; liver, vs untreated, total number of DEGs): 45 | change in cellular composition of liver (mouse liver cells; vs normal control (saline-injected)): sharp increase in the number of neutrophils and a decrease in the number of immune cells
